Reference: ChEMBL document CHEMBL5528043, “Development of Potent Mcl-1 Inhibitors: Structural Investigations on Macrocycles Originating from a DNA-Encoded Chemical Library Screen” (J Med Chem, 2024)
Values after ≈ are worked out from the molar mass of the structure shown.

Assays:
[1] = molecular target: Induced myeloid leukemia cell differentiation protein Mcl-1 (Homo sapiens, UniProt Q07820); assay: Inhibition of Mcl-1 (172-327) (unknown origin) using BIOTIN-AHXGQVGRQLAIIGDDINR-amide peptide by TR-FRET based BAK peptide displacement assay
NCI-H929 [2] = assay: Cytotoxicity against human NCI-H929 cells assessed as cell viability measured after 72 hrs incubation by CellTiterGlo assay; format: functional, cell-based; details: NCI-H929, 72 h
Bcl-2-like protein 1 = Bcl-2-like protein 1 (Homo sapiens, UniProt Q07817); assay: Inhibition of Bcl-xl (1-212) (unknown origin) using BIOTIN-AHXAHXGQVGRQLAIIGDDINR-amide peptide by TR-FRET based BAK peptide displacement assay
[3] = Kinetic solubility of the compound in pH 7.4 buffer measured after 24 hrs by LC-UV analysis; format: physicochemical; details: read-out: Kinetic_solubility
NCI-H929 [4] = assay: Cytotoxicity against human NCI-H929 cells assessed as […] by measuring caspase 3/7 activity measured after 6 hrs by luminescence assay; format: functional, cell-based; details: NCI-H929, 6 h
[5] = Passive permeability of compound at pH 7.4 incubated for 4 hrs by PAMPA assay; format: ADME; details: read-out: permeability
[6] = Metabolic stability in mouse liver S9 fraction assessed as intrinsic clearance; format: ADME, subcellular; details: read-out: CLH
[7] = Metabolic stability in rat liver S9 fraction assessed as intrinsic clearance; format: ADME, subcellular; details: read-out: CLH
[8] = Metabolic stability in human liver S9 fraction assessed as intrinsic clearance; format: ADME, subcellular; details: for microsomal CLint: liver S9 fraction, read-out: CLH
[9] = Metabolic stability in mouse liver S9 fraction assessed as half life; format: ADME, subcellular
[10] = Metabolic stability in rat liver S9 fraction assessed as half life; format: ADME, subcellular
[11] = Metabolic stability in human liver S9 fraction assessed as half life; format: ADME, subcellular; details: for half-life: liver S9 fraction

Chain of Induced myeloid leukemia cell differentiation protein Mcl-1 (Q07820 whole entry): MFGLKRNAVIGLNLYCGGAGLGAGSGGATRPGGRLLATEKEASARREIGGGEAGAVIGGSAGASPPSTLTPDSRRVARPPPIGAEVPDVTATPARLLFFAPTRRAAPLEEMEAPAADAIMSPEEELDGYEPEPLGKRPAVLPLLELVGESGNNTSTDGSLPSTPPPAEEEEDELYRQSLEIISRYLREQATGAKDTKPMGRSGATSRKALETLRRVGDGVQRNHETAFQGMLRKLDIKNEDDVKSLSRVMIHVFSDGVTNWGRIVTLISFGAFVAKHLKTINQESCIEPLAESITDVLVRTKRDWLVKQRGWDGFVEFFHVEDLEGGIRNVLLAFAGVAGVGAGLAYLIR
Chain of Bcl-2-like protein 1 (Q07817 whole entry): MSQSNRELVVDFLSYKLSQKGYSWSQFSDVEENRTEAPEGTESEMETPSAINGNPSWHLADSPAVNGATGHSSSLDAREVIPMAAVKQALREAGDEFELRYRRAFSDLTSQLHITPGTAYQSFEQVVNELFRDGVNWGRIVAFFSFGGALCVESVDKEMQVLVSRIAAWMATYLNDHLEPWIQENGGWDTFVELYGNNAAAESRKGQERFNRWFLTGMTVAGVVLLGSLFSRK

Row | SMILES | IC50 [1] [nM] | IC50 (NCI-H929 [2]) [nM] | IC50 (Bcl-2-like protein 1) [nM] | solubility kinetic at 24 h [3] [µM] | IC50 (NCI-H929 [4]) [nM] | Papp at 4 h [5] [×10⁻⁶ cm/s] | microsomal CLint [6] [µL/min/mg] | microsomal CLint [7] [µL/min/mg] | microsomal CLint [8] [µL/min/mg] | half-life [9] [min] | half-life [10] [min] | half-life [11] [min] | CLH ([8]; s9) [µL/min/mg] | t1/2 ([11]; s9) [min]
1 | CCOc1cc(Oc2cc(C)c(Cl)c(C)c2)cc2c1OCC(=O)N[C@H]1CC[C@H](CC1)CC(=O)N[C@@H](c1ccccc1)C(=O)N[C@H](Cc1ccccc1)C(=O)NCCc1ccc(cc1)OC2 | 1500 | 41 | > 10000 | < 2 | 60 | – | – | – | – | – | – | – | – | –
2 | CCOc1cc(Oc2cc(C)cc(C)c2)cc2c1OCC(=O)N[C@H]1CC[C@H](CC1)CC(=O)N[C@@H](c1ccccc1)C(=O)N[C@H](Cc1ccccc1)C(=O)N[C@H](C(=O)O)Cc1ccc(cc1)NC2 | 7700 | – | – | > 80 | 630 | 2 | – | – | – | – | – | – | – | –
3 | CCOc1cc(Oc2cc(C)c(Cl)c(C)c2)cc2c1OCC(=O)N[C@H]1CC[C@H](CC1)CC(=O)N[C@@H](c1ccccc1)C(=O)N[C@H](Cc1cccnc1)C(=O)N[C@H](C(=O)O)Cc1ccc(cc1)OC2 | 13000 | – | – | > 80 | 480 | 3.9 | – | – | – | – | – | – | – | –
4 | CCOc1cc(Oc2cc(C)cc(C)c2)cc2c1OCC(=O)N[C@H]1CC[C@H](CC1)CC(=O)N[C@@H](c1ccccc1)C(=O)N[C@H](Cc1ccccc1)C(=O)NCCc1ccc(cc1)OC2 | 1600 | 56 | > 10000 | – | – | – | – | – | – | – | – | – | – | –
5 | CCOc1cccc2c1OCC(=O)N[C@H]1CC[C@H](CC1)CC(=O)N[C@@H](c1ccccc1)C(=O)N[C@H](Cc1ccccc1)C(=O)NCCc1ccc(cc1)OC2 | 130 | > 10000 | > 10000 | < 2 | – | – | 41 | 30 | 82 | 17 | 23 | 8 | – | –
6 | CCOc1cc(Oc2cc(C)c(Cl)c(C)c2)cc2c1OCC(=O)N[C@H]1CC[C@H](CC1)CC(=O)N[C@@H](c1ccccc1)C(=O)N1CCC[C@@H]1C(=O)NCCc1ccc(cc1)OC2 | 18000 | – | – | < 2 | 540 | 7.3 | – | – | – | – | – | – | – | –
7 | CCOc1cc(Oc2cc(C)c(Cl)c(C)c2)cc2c1OCC(=O)N[C@H]1CC[C@H](CC1)CC(=O)N[C@@H](CC(C)C)C(=O)N[C@H](Cc1cccnc1)C(=O)N[C@H](C(=O)O)Cc1ccc(cc1)OC2 | 31000 | – | – | > 80 | 1100 | 5.3 | – | – | – | – | – | – | – | –
8 | CCOc1cccc2c1OCC(=O)N[C@H]1CC[C@H](CC1)CC(=O)N[C@@H](c1ccccc1)C(=O)N[C@H](Cc1ccccc1)C(=O)N[C@H](C(=O)NC)Cc1ccc(cc1)NC2 | 80 | – | > 10000 | < 2 | – | – | 35 | 18 | – | 20 | 39 | – | 17 | 17
9 | CCOc1cc(Oc2cc(C)c(Cl)c(C)c2)cc2c1OCC(=O)N[C@H]1CC[C@H](CC1)CC(=O)N[C@@H](c1ccccc1)C(=O)N[C@H](Cc1ccccc1)C(=O)N[C@H](C(=O)O)Cc1ccc(cc1)NC2 | 5700 | – | – | > 80 | 1100 | < 1 | – | – | – | – | – | – | – | –
10 | CCOc1cccc2c1OCC(=O)N[C@H]1CC[C@H](CC1)CC(=O)N[C@@H](c1ccccc1)C(=O)N[C@H](Cc1ccccc1)C(=O)N[C@H](C(=O)NC)Cc1ccc(cc1)OC2 | 50 | – | > 10000 | < 2 | – | – | 36 | 15 | 19 | 19 | 47 | 37 | – | –
11 | CCOc1cc(Oc2cc(C)c(Cl)c(C)c2)cc2c1OCC(=O)N[C@H]1CC[C@H](CC1)CC(=O)N[C@@H](c1ccccc1)C(=O)N[C@H](Cc1ccncc1)C(=O)NCCc1ccc(cc1)OC2 | 5300 | – | – | < 2 | 35 | < 1 | – | – | – | – | – | – | – | –
12 | CCOc1cc(Oc2cc(C)c(Cl)c(C)c2)cc2c1OCC(=O)N[C@H]1CC[C@H](CC1)CC(=O)N[C@@H](c1ccccc1)C(=O)N[C@H](Cc1cccnc1)C(=O)NCCc1ccc(cc1)OC2 | 14000 | – | – | < 2 | 45 | 5.5 | – | – | – | – | – | – | – | –
13 | CCOc1cc(Oc2cc(C)c(Cl)c(C)c2)cc2c1OCC(=O)N[C@H]1CC[C@H](CC1)CC(=O)N[C@@H](CC(C)C)C(=O)N[C@H](Cc1cccnc1)C(=O)N[C@@H](C(=O)O)Cc1ccc(cc1)OC2 | 16000 | – | – | 11 (≈ 10.2 µg/mL) | 410 | 1.5 | – | – | – | – | – | – | – | –
